The text below walks through data of ChEMBL document CHEMBL3421561, “CNS drug design: balancing physicochemical properties for optimal brain exposure” (J Med Chem, 2015).

The nature of series [1]: Ratio of unbound drug in brain to plasma in mouse. Format: ADME, organism-based. Particulars: brain and plasma, read-out: K(p,uu,brain).
The next series relates to Brain. The series can be described thus: AUC in rat brain at 10 mg/kg, sc. On the set-up: dose 10 mg/kg, route subcutaneous. The note with it: in vivo. Format: ADME, organism-based.
Series [2] can be described thus: AUC in rat interstitial fluid at 10 mg/kg, sc by transcortical microdialysis. It counts as ADME, organism-based. On the set-up: dose 10 mg/kg, route subcutaneous. Particulars: in vivo.
A further series deals with Mu-type opioid receptor (Homo sapiens, UniProt P35372). The series can be described thus: biochemical. It counts as cell-based, 293T.
Series [3] is described as follows: Ratio of drug uptake in brain to plasma in rat. Format: ADME. The note with it: brain and plasma.
The nature of series [4]: Ratio of unbound drug in brain to plasma in rat. Format: ADME. The note with it: brain and plasma, read-out: K(p,uu,brain).
The next series addresses Substance-P receptor (Homo sapiens, UniProt P25103). In words: Antagonist activity at NK1 receptor (unknown origin).
The next series deals with Rattus norvegicus. In words: AUC (0 to 1 hr) in rat at 0.5 mg/kg, iv. It counts as ADME, organism-based, Plasma. On the set-up: time < 1 hr, dose 0.5 mg/kg, route intravenous. The note with it: in vivo.
The subject of a further series is Gerbillinae. In words: Antagonist activity at NK1 receptor in substance P-induced gerbil foot tapping model.
Series [5] can be described thus: Oral bioavailability in dog. Particulars: in vivo. Format: ADME, organism-based, Canis lupus familiaris.
The nature of series [6]: Half life in dog. It counts as ADME, organism-based, Canis lupus familiaris. Particulars: in vivo.
Series [7] in a line: Solubility of the compound. It counts as physicochemical.
The nature of series [8]: Apparent permeability of the compound. The note with it: not told.

Chain of Mu-type opioid receptor (P35372 whole entry): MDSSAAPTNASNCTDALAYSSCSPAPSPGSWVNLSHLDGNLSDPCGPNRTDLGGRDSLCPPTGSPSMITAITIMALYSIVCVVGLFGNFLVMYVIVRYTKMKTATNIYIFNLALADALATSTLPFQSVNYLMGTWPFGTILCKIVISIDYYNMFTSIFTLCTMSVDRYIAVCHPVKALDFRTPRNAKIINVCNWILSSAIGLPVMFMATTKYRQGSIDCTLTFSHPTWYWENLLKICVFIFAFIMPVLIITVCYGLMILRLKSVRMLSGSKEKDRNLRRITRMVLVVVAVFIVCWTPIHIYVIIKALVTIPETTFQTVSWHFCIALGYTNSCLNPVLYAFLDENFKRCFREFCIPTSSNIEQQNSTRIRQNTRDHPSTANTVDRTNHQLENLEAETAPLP
Chain of Substance-P receptor (P25103 whole entry): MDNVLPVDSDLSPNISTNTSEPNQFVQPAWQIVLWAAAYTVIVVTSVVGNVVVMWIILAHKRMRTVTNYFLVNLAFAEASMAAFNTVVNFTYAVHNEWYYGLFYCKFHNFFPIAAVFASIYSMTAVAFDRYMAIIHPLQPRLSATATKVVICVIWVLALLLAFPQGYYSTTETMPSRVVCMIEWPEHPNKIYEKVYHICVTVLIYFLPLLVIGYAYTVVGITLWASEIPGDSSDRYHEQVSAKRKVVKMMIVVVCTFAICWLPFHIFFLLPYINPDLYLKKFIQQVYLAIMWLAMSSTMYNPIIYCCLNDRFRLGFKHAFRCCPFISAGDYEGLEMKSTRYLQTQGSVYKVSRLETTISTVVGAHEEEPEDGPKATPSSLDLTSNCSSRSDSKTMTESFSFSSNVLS
Description for Mu-type opioid receptor: Displacement of [3H]naloxone from MOR (unknown origin) expressed in human 293T cells

`COc1ccc(C(CN(C)C)C2(O)CCCCC2)cc1` (centres undefined) [VENLAFAXINE]: the Kp uu in [1] came out at 0.98.

Turning to `CN1CC[C@]23c4c5ccc(O)c4O[C@H]2[C@@H](O)C=C[C@H]3[C@H]1C5` [MORPHINE], the figures for the AUC (with Brain; in [2]) were 186 µM/min and 79 µM/min, respectively.

As to `CN1CC[C@]23c4c5ccc(O)c4O[C@H]2[C@@H](O[C@@H]2O[C@H](C(=O)O)[C@@H](O)[C@H](O)[C@H]2O)C=C[C@H]3[C@H]1C5` [MORPHINE GLUCURONIDE], at Mu-type opioid receptor, the affinity, expressed as Ki, was 63 nM. For the same molecule, the AUC in the series with Brain amounted to 42 µM/min; in [2] it was 336 µM/min. In addition, the Kp (as a rule, tissue or fluid exposure divided by exposure in the circulation) in series [3] was determined as 0.05. Besides, in [4], the Kp uu stood at 0.56.

In the case of `C[C@H](NC(=O)[C@](Cc1c[nH]c2ccccc12)(CN(C)C)NC(=O)OCc1cc2ccccc2o1)c1ccccc1`, the Kp in [3] was determined as 6. Further, on Substance-P receptor, half-maximal inhibition (IC50) was put at 0.5 nM. The molecule also displayed an AUC in the series on Rattus norvegicus of 50 ng·h/g. In the series on Gerbillinae, this molecule yielded an MED of 1 mg/kg.

For the molecule `C[C@H](NC(=O)[C@@](C)(Cc1c[nH]c2ccccc12)NC(=O)OCc1cc2ccccc2o1)c1ccccc1`, in series [3], the Kp amounted to 0.4. Also, in series [5], the bioavailability – broadly, dose-corrected exposure relative to a reference, in per cent – came to 60%. Moreover, in [6], the half-life (usually the time needed for the level to fall by half in the phase considered) was over 6 h. In series [7], the solubility (in general, the concentration that dissolves in the medium under given conditions) is under 2 µg/mL. The molecule further yielded an AUC in the series with Rattus norvegicus of 120 ng·h/g. The same molecule showed an MED in the series with Gerbillinae of 30 mg/kg.

As for `CC(C)(C)c1ccc(C(O)CCCN2CCC(C(O)(c3ccccc3)c3ccccc3)CC2)cc1` (centres undefined) [TERFENADINE], the Papp (commonly a coefficient for how fast a substance crosses the barrier) in series [8] is 28.5 ×10⁻⁶ cm/s.
